From US9961896B2, “Cleaning liquid” (priority 2013, dated 2018)

Columns and labels:
Assay in all cases: EN 1276 bactericidal activity
Format in all cases: cell-based
Settings in all cases: diluted to 1:20 v/v; 5 minutes at 20° C.; dirty conditions
[1] = tested on: Enterococcus hirae (NCIMB 8192)
[2] = tested on: Staphylococcus aureus (NCTC 10788)
[3] = tested on: Escherichia coli (NCTC 10418)
[4] = tested on: Pseudomonas aeruginosa (NCI MB 10421)

Measured: passes the requirements of EN 1276 for bactericidal activity

Cc1cc(O)ccc1Cl [Acticide PCMC, P-chloro-m-cresol]
does not pass: all assays above

Benzalkonium chloride [Acticide BAC50M]
does not pass: all assays above

CCCCCCCCCC[N+](C)(C)CCCCCCCCCC.[Cl-] [Acticide DDQ50, Didecyl Dimethyl Ammonium Chloride]
does not pass: all assays above

O=[N+]([O-])C(Br)(CO)CO [Acticide L, Bronopol]
does not pass: all assays above
